Measured values from publication PMC8018653, “Gender-based differences in brain and plasma pharmacokinetics of letrozole in sprague-dawley rats: Application of physiologically-based pharmacokinetic modeling to gain quantitative insights” (PLoS ONE, 2021).
Several values for one entry are separate records, joined by “and”; a condition that tells them apart may be missing. Identical values can stand only once. Like-named read-outs stand apart in the source and are kept apart here.

Test: Single dose brain ECF pharmacokinetics by intracerebral microdialysis
Format: in vivo, Sprague-Dawley rats
Conditions: single dose 4 mg/kg i.p.; for Tmax / AUC(0-t) / Kp uu: Sprague-Dawley, rat, ip; for Tmax / AUC(0-t): brain ECF (striatal microdialysate); for AUC(0-t): read-out: AUC 0–12, brain ECF; for Cmax, brain ECF / Kp uu: 4 mg/kg; for Kp uu: brain ECF / unbound plasma
Method: Within 10 minutes of collection, plasma was separated by centrifugation of the blood samples at 4,000 rpm for 15 min. Microdialysis samples were collected simultaneously through the probes at the same time points from 0–12 hours.

## N#Cc1ccc(C(c2ccc(C#N)cc2)n2cncn2)cc1 [letrozole]
Female rats
  Tmax: 6.9 h
  AUC(0-t): 5750 ng·h/mL
  Cmax, brain ECF: 660 ± 260 ng/ml and 660 (260)* ng/ml and 660 ng/ml
Male rats
  Tmax: 4.7 h
  AUC(0-t): 2410 ng·h/mL
  Cmax, brain ECF: 260 ± 80 ng/ml and 260 (80) ng/ml and 260 ng/ml
female, female rats, read-out: Kpuu (AUC0-12 brain ECF / plasma unbound)
  Kp uu: 1.3
female, female rats, read-out: Kpuu (Cmax brain ECF / plasma unbound)
  Kp uu: 1.4
male, male rats, read-out: Kpuu (AUC0-12 brain ECF / plasma unbound)
  Kp uu: 0.6
male, male rats, read-out: Kpuu (Cmax brain ECF / plasma unbound)
  Kp uu: 0.6
  brain ECF AUC0-12, female versus male difference: 2.4 fold
  brain ECF Cmax, female versus male difference: 2.5 fold
